Reference: patent publication US10488417B2, “Compounds for use as imaging agents” (United Arab Emirates University, priority 2014, dated 2019)

How the values were obtained:
Format in all cases: biochemical
α-synuclein [1] = target: T1, α-synuclein (Homo sapiens, UniProt P37840); assay: α-synuclein oligomerization by immunoblot analysis; conditions: compound: α-syn molar ratios 1:1, 2:1, 4:1; 5 days
T1 construct: GST (N, cleaved yes); made in house; host or cells: E. coli BL21
Method: Samples of α-synuclein (20 ng) incubated alone or with the compounds were mixed with 1× sample buffer (250 mM Tris-HCl, pH 6.8, 30% glycerol, 0.02% bromophenol blue) and then separated in 15% 1 mm SDS-PAGE gels. The separated proteins were transferred to 0.45 μm nitrocellulose membranes (Whatman Gmbh-Germany) at 90 V for 80 min. The membranes were boiled for 5 min in PBS and then blocked for 1 hour with 5% non-fat milk prepared in PBS-Tween-20 (0.05%; PBST). The membranes were incubated overnight at 4° C. with the primary mouse monoclonal anti-α-syn (211) antibody, which recognizes human α-synuclein (121-125) (Santa Cruz Biotechnology, USA), at a dilution of 1:1000. The membranes were then washed several times with PBST, followed by incubation with an HRP-conjugated goat anti-mouse antibody (Dako Ltd., Ely, UK) at a dilution of 1:70,000 for 60 minutes at room temperature with gentle agitation. The membranes were then extensively washed for 25 min, and immunoreactive bands were visualized with the Super Signal West Femto Chemiluminescent Substrate Kit (Pierce, Rockford, USA) according to the manufacturer's instructions.
The effect of Gn Rb1, salvianolic acid B and dihydromyricetin on α-synuclein oligomerization was assessed by immunoblot analysis. Fresh and aged solutions of α-synuclein alone or in the presence of Gn Rb1, salvianolic acid B or dihydromyricetin were analyzed. Samples were separated in 15% SDS gels, transferred onto a nitrocellulose membrane and probed with an antibody that recognizes the amino acid residues 121-125 of α-synuclein. The majority of freshly prepared α-synuclein migrated as a band at ˜16 KDa, corresponding to α-synuclein monomers (FIGS. 4A-C).
The amount of monomeric α-synuclein in the α-synuclein aged alone samples and in the presence of compounds was quantified against a fresh α-synuclein sample that contained only the monomeric species using ImageJ software.

α-synuclein [2] = target: T1, α-synuclein; assay: α-synuclein fibrillation, Thioflavin-T (Th-T) binding assay; conditions: 25 μM α-synuclein; for inhibition at 50 µM: compound 50 μM
Method: The protein purity was estimated to be >95% using an SDS gel. Ginsenoside, Rb1, stock solutions (10 mM) were prepared in 100% DMSO, and the final amount of DMSO in the sample solutions was 1%. Samples of 25 μM α-synuclein in PBS were aged alone or with Rb1 at various molar ratios (Rb1:α-synuclein molar ratios of 4:1, 2:1 and 1:1). The samples were placed in 1.5 ml sterile polypropylene tubes, drops of mineral oil were added to prevent sample evaporation, and the tubes were then sealed with parafilm and incubated at 37° C. for 5 days with continuous shaking at 800 rpm in a Thermomixer (Eppendorf). Samples were collected at the indicated time points, and a Thioflavin-T assay was performed immediately at each time point, while the rest of the samples were stored at −80° C. until needed for further analyses.
α-Synuclein fibril formation was monitored by Th-T binding assay. Th-T is a fluorescent dye that interacts with fibrils containing a β-sheet structure. A total of 10 μL of each sample was diluted in 40 μL of Th-T in PBS. Fluorescence was then measured in a 384-well, untreated black micro-well plate (Nunc, Denmark) using a microplate reader (Victor X3 2030, Perkin Elmer) with the excitation and emission wavelengths set at 450 and 486 nm, respectively. To allow for background fluorescence, the fluorescence intensity of a blank PBS solution was subtracted from all readings.
α-Synuclein solution at a concentration of 25 μM was incubated at 37° C. with continuous shaking for 5 days, leading to fibril formation, which was monitored by Th-T fluorescence at regular time intervals. α-Synuclein was incubated with each of Gn Rb1, salvianolic acid B and dihydromyricetin at molar ratios of 4:1, 2:1 and 1:1 (molar ratio Compound: α-synuclein) with a constant α-synuclein concentration of 25 μM.

α-synuclein [3] = target: T1, α-synuclein; assay: Transmission electron microscopy of α-synuclein aged with compounds; conditions: 25 μM α-synuclein, 5 days, molar ratios 4:1, 2:1, 1:1
Method: Electron images were produced from α-synuclein aged alone or in the presence of the compounds. The samples (5 μL) were deposited on Formvar-coated 400-mesh copper grids (Agar Scientific, UK), fixed briefly with 0.5% glutaraldehyde (5 μL), negatively stained with 2% uranyl acetate (Sigma-Aldrich, USA) and examined with a Philips CM-10 TEM electron microscope.

α-synuclein [4] = target: T1, α-synuclein; assay: Seeding polymerization assay of α-synuclein monomers (Th-T, TEM); conditions: for inhibition of the seeding process / inhibition at 50 µM: 6 hours, 100 μM monomeric α-synuclein, 2 μM seeds; for inhibition at 50 µM: read-out: inhibition of the seeding process
Method: The aggregation of monomeric α-synuclein with or without seeding was performed as described elsewhere. The seeds were prepared by fragmenting the mature α-synuclein fibrils by sonication to obtain short fibrils, which were employed as ‘seeds’. Briefly, monomeric α-synuclein at a concentration of 100 μM was seeded with 2 μM of seeds and incubated in the presence or absence of the compounds (10 μM or 50 μM) at 37° C. for 6 hours with continuous shaking. The fibrillization was monitored by Th-T binding assay as described above.
To assess the effect of salvianolic acid B, dihydromyricetin and Gn Rb1 on the seeding of α-synuclein aggregation, the compounds were added at concentrations of 10 or 50 μM to 100 μM monomeric α-synuclein containing seeds at a final concentration of 2 μM. The mixture was then incubated with continuous mixing at 37° C. for 6 hours.

[5] = after 5 days of incubation, read-out: inhibition of α-synuclein fibrillation (Th-T fluorescence)

SMILES | effect on α-synuclein oligomerization (immunoblot, densitometry) (α-synuclein [1]) | inhibition percentage of α-synuclein fibrillation (Th-T fluorescence) (α-synuclein [2]; 2 days of incubation, 37° C., all tested concentrations) | reduction of α-synuclein fibrillation (Th-T fluorescence) (α-synuclein [2]; after 5 days of incubation, all tested concentrations) | TEM appearance of α-synuclein aged in the presence of compound (α-synuclein [3]) | TEM appearance of seeded α-synuclein with compound (α-synuclein [4]; after 6 h of incubation, compound 50 μM) | inhibition of the seeding process (α-synuclein [4]; compound 10 μM) | inhibition of the seeding process (α-synuclein [4]; compound 50 μM) | inhibition of α-synuclein fibrillation (Th-T fluorescence) (α-synuclein [2]; compound 25 μM, after 5 days of incubation) | inhibition at 50 µM (α-synuclein [2]; [5]) [%] | inhibition at 100 µM (α-synuclein [2]; compound 100 μM, after 5 days of incubation, read-out: inhibition of α-synuclein fibrillation (Th-T fluorescence)) [%] | inhibition at 50 µM (α-synuclein [4]; compound 50 μM) [%] | inhibition at 25 µM (α-synuclein [2]; compound 25 μM, after 5 days of incubation, read-out: inhibition of α-synuclein fibrillation (Th-T fluorescence)) [%] | inhibition of α-synuclein fibrillation (Th-T fluorescence) (α-synuclein [2]; compound 100 μM, after 5 days of incubation)
CC(C)=CCC[C@](C)(O[C@@H]1O[C@H](CO[C@@H]2O[C@H](CO)[C@@H](O)[C@H](O)[C@H]2O)[C@@H](O)[C@H](O)[C@H]1O)[C@H]1CC[C@]2(C)[C@@H]1[C@H](O)C[C@@H]1[C@@]3(C)CC[C@H](O[C@@H]4O[C@H](CO)[C@@H](O)[C@H](O)[C@H]4O[C@@H]4O[C@H](CO)[C@@H](O)[C@H](O)[C@H]4O)C(C)(C)[C@@H]3CC[C@]12C [Gn Rb1, ginsenoside Rb1] | potent inhibitor of α-synuclein oligomerization at all molar ratios | approximately 90% | approximately 80% | thin, short rod-like fibrils, with a fragmented appearance | mostly globular forms of α-synuclein | approximately 60% | approximately 90% |  |  |  |  |  | 
O=C1c2c(O)cc(O)cc2O[C@H](c2cc(O)c(O)c(O)c2)[C@H]1O [dihydromyricetin] | inhibited α-synuclein oligomerization in a dose-dependent fashion |  |  | thin, short rod-like fibrils, with a fragmented appearance |  | showed an inhibitory effect |  | failed to inhibit fibrillation | 40 | 80 | ~90 |  | 
O=C(/C=C/c1ccc(O)c2c1[C@H](C(=O)O[C@H](Cc1ccc(O)c(O)c1)C(=O)O)[C@@H](c1ccc(O)c(O)c1)O2)O[C@H](Cc1ccc(O)c(O)c1)C(=O)O [salvianolic acid B] | inhibited α-synuclein oligomerization in a dose-dependent fashion |  |  | thin, short rod-like fibrils, with a fragmented appearance |  | to a smaller extent |  |  | ~80 |  | ~90 | ~35 | completely abolished
